Assays:
[1] = molecular target: T1, rat GPR14 (U-II receptor) (Rattus norvegicus, UniProt P49684); test: Rat UII Calcium Mobilization FLIPR Assay; assay type: cell-based; settings: average value for the compound tested; read-out: Rat UII FLIPR Average IC50
T1 construct: expressed in transfected cells
T1 sequence (P49684 1-386): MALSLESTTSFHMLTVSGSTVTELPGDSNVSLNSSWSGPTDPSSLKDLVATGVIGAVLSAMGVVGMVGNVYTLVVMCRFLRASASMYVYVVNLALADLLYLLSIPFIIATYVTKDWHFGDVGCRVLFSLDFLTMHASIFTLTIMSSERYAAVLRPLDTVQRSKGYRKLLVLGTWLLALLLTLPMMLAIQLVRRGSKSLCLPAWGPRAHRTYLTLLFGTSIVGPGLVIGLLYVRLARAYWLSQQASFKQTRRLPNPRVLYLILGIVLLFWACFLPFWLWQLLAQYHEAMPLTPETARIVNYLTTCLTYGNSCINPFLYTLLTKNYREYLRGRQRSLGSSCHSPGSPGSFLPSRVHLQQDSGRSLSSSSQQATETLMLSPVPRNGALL
Outline: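 Fluorescent calcium signals were recorded at room temperature (23° C) by FLIPR. Stable rat U-II receptor CHO lines had been dye-loaded for 1 h at 37° C in pH 7.4 HBSS containing 20 mM HEPES, 0.1% BSA and 2.5 mM probenecid.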

[2] = molecular target: T2, Human UII receptor, 6D9 human rhabdomyosarcoma cells (Homo sapiens, UniProt Q9UKP6); test: Human UII Calcium Mobilization Assay; assay type: cell-based; settings: average value, FLIPR TETRA, read-out: Human UII Ca^+ Mobilization Average IC50
T2 construct: 6D9: isolated by dilution subcloning of RMS13 cells, ATCC® Number: CRL-2061; host or cells: 6D9 human rhabdomyosarcoma cells (subclone of RMS13)
T2 sequence (Q9UKP6 1-389): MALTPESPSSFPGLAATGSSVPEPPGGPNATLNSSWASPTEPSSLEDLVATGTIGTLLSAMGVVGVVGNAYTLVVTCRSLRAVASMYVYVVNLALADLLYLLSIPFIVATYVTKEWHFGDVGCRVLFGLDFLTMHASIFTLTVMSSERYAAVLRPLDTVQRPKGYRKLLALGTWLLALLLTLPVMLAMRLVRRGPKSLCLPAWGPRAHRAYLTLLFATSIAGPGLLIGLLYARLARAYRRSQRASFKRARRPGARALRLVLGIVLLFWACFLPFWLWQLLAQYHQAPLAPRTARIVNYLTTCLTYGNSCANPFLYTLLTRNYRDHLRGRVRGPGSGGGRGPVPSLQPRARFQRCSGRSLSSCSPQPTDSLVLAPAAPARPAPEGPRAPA
Outline: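 FLIPR calcium responses were recorded for 4 minutes after room-temperature addition of test antagonist and U-II, in dye-loaded human 6D9 cells (37° C, 45 min; HBSS/HEPES with probenecid 1.25 mM). Compounds serially diluted in HBSS/HEPES, up to 0.1% DMSO; curves gave IC50 and EC50.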

[3] = molecular target: T3, endogenous human UII receptor (Homo sapiens, UniProt Q9UKP6); test: Human Radioligand Binding Assay ((^125I)-U-II binding to human skeletal muscle myoblasts)
T3 sequence (Q9UKP6 1-389): T2 sequence (Q9UKP6 1-389)

Row | Structure (SMILES) | IC50 [1] [nM] | IC50 [2] [nM] | Ki [3] [nM]
1 | COc1ccc([C@@H](CCCNC(=O)C2CCC2)N2C(=O)c3cccc(N4CCN([C@H](C)c5ccccc5)CC4)c3C2=O)cc1OC [Cpd 178, (R)-cyclobutanecarboxylic acid (4-(3,4-dimethoxy-phenyl)-4-{1,3-dioxo-4-[4-(1R)-(1-phenyl-ethyl)-piperazin-1-yl]-1,3-dihydro-isoindol-2-yl}-butyl)-amide] | 13 | 560 | 22
2 | COc1ccc([C@@H](CCCNC(=O)C2CCCC2)N2C(=O)c3cccc(N4CCN([C@H](C)c5ccccc5)CC4)c3C2=O)cc1OC [Cpd 179, (R)-cyclopentanecarboxylic acid (4-(3,4-dimethoxy-phenyl)-4-{1,3-dioxo-4-[4-(1R)-(1-phenyl-ethyl)-piperazin-1-yl]-1,3-dihydro-isoindol-2-yl}-butyl)-amide] | 24 | 1100 | 43
3 | CCC(=O)NCCC[C@H](c1ccc(OC)c(OC)c1)N1C(=O)c2cccc(N3CCN([C@H](C)c4ccccc4)CC3)c2C1=O [Cpd 180, (R)-N-(4-(3,4-dimethoxy-phenyl)-4-{1,3-dioxo-4-[4-(1R)-(1-phenyl-ethyl)-piperazin-1-yl]-1,3-dihydro-isoindol-2-yl}-butyl)-propionamide] | 8.8 | 570 | 23
4 | COc1ccc([C@@H](CCCNC(=O)CC(C)C)N2C(=O)c3cccc(N4CCN([C@H](C)c5ccccc5)CC4)c3C2=O)cc1OC [Cpd 181, (R)-N-(4-(3,4-dimethoxy-phenyl)-4-{1,3-dioxo-4-[4-(1R)-(1-phenyl-ethyl)-piperazin-1-yl]-1,3-dihydro-isoindol-2-yl}-butyl)-3-methyl-butyramide] | 12 | 970 | 41
5 | CCOCC(=O)NCCC[C@H](c1ccc(OC)c(OC)c1)N1C(=O)c2cccc(N3CCN([C@H](C)c4ccccc4)CC3)c2C1=O [Cpd 182, (R)-N-(4-(3,4-dimethoxy-phenyl)-4-{1,3-dioxo-4-[4-(1R)-(1-phenyl-ethyl)-piperazin-1-yl]-1,3-dihydro-isoindol-2-yl}-butyl)-2-ethoxy-acetamide] | 9.6 | 580 | 40
6 | COc1ccc([C@@H](CCCNC(=O)c2cnn(C)c2Cl)N2C(=O)c3cccc(N4CCN([C@H](C)c5ccccc5)CC4)c3C2=O)cc1OC [Cpd 183, (R)-5-chloro-1-methyl-1H-pyrazole-4-carboxylic acid (4-(3,4-dimethoxy-phenyl)-4-{1,3-dioxo-4-[4-(1R)-(1-phenyl-ethyl)-piperazin-1-yl]-1,3-dihydro-isoindol-2-yl}-butyl)-amide] | 19 | 1300 | 55
7 | COc1ccc([C@@H](CCCNC(=O)c2c(C)nn(C)c2C)N2C(=O)c3cccc(N4CCN([C@H](C)c5ccccc5)CC4)c3C2=O)cc1OC [Cpd 184, (R)-1,3,5-trimethyl-1H-pyrazole-4-carboxylic acid (4-(3,4-dimethoxy-phenyl)-4-{1,3-dioxo-4-[4-(1R)-(1-phenyl-ethyl)-piperazin-1-yl]-1,3-dihydro-isoindol-2-yl}-butyl)-amide] | 15 | 1100 | 56
8 | COc1ccc([C@@H](CCCNC(=O)C(C)(C)C)N2C(=O)c3cccc(N4CCN([C@H](C)c5ccccc5)CC4)c3C2=O)cc1OC [Cpd 185, (R)-N-(4-(3,4-dimethoxy-phenyl)-4-{1,3-dioxo-4-[4-(1R)-(1-phenyl-ethyl)-piperazin-1-yl]-1,3-dihydro-isoindol-2-yl}-butyl)-2,2-dimethyl-propionamide] | 9.8 | 1000 | 23
9 | COc1ccc([C@@H](CCCNC(=O)c2ccoc2)N2C(=O)c3cccc(N4CCN([C@H](C)c5ccccc5)CC4)c3C2=O)cc1OC [Cpd 186, (R)-furan-3-carboxylic acid (4-(3,4-dimethoxy-phenyl)-4-{1,3-dioxo-4-[4-(1R)-(1-phenyl-ethyl)-piperazin-1-yl]-1,3-dihydro-isoindol-2-yl}-butyl)-amide] | 13 | 820 | 37
10 | COc1ccc([C@@H](CCCNC(=O)c2ccno2)N2C(=O)c3cccc(N4CCN([C@H](C)c5ccccc5)CC4)c3C2=O)cc1OC [Cpd 187, (R)-isoxazole-5-carboxylic acid (4-(3,4-dimethoxy-phenyl)-4-{1,3-dioxo-4-[4-(1R)-(1-phenyl-ethyl)-piperazin-1-yl]-1,3-dihydro-isoindol-2-yl}-butyl)-amide] | 11 | 910 | 50
11 | COc1ccc([C@@H](CCCNC(=O)c2cc(C)[nH]c2C)N2C(=O)c3cccc(N4CCN([C@H](C)c5ccccc5)CC4)c3C2=O)cc1OC [Cpd 188, (R)-2,5-dimethyl-1H-pyrrole-3-carboxylic acid (4-(3,4-dimethoxy-phenyl)-4-{1,3-dioxo-4-[4-(1R)-(1-phenyl-ethyl)-piperazin-1-yl]-1,3-dihydro-isoindol-2-yl}-butyl)-amide] | 20 | 1300 | 120
12 | CCOCCC(=O)NCCC[C@H](c1ccc(OC)c(OC)c1)N1C(=O)c2cccc(N3CCN([C@H](C)c4ccccc4)CC3)c2C1=O [Cpd 189, (R)-N-(4-(3,4-dimethoxy-phenyl)-4-{1,3-dioxo-4-[4-(1R)-(1-phenyl-ethyl)-piperazin-1-yl]-1,3-dihydro-isoindol-2-yl}-butyl)-3-ethoxy-propionamide] | 8.6 | 1100 | 57
13 | COc1ccc([C@@H](CCCNC(=O)c2cn[nH]c2)N2C(=O)c3cccc(N4CCN([C@H](C)c5ccccc5)CC4)c3C2=O)cc1OC [Cpd 190, (R)-1H-pyrazole-4-carboxylic acid (4-(3,4-dimethoxy-phenyl)-4-{1,3-dioxo-4-[4-(1R)-(1-phenyl-ethyl)-piperazin-1-yl]-1,3-dihydro-isoindol-2-yl}-butyl)-amide] | 6.1 | 290 | 20
14 | COc1ccc([C@@H](CCCNC(=O)[C@@H]2CCCN2C)N2C(=O)c3cccc(N4CCN([C@H](C)c5ccccc5)CC4)c3C2=O)cc1OC [Cpd 191, (S)-1-methyl-pyrrolidine-2-carboxylic acid (R)-(4-(3,4-dimethoxy-phenyl)-4-{1,3-dioxo-4-[4-(1R)-(1-phenyl-ethyl)-piperazin-1-yl]-1,3-dihydro-isoindol-2-yl}-butyl)-amide] | 31 | 1500 | 69
15 | COc1ccc([C@@H](CCCNS(=O)(=O)c2cccs2)N2C(=O)c3cccc(N4CCN(C5CCC5)CC4)c3C2=O)cc1OC [Cpd 192, (R)-thiophene-2-sulfonic acid [4-[4-(4-cyclobutyl-piperazin-1-yl)-1,3-dioxo-1,3-dihydro-isoindol-2-yl]-4-(3,4-dimethoxy-phenyl)-butyl]-amide] | 7 | 640 | 30
16 | COc1ccc([C@@H](CCCNS(=O)(=O)c2cccs2)N2C(=O)c3cccc(N4CCN(C5CCCC5)CC4)c3C2=O)cc1OC [Cpd 193, (R)-thiophene-2-sulfonic acid [4-[4-(4-cyclopentyl-piperazin-1-yl)-1,3-dioxo-1,3-dihydro-isoindol-2-yl]-4-(3,4-dimethoxy-phenyl)-butyl]-amide] | 7.9 | 520 | 86
17 | C=CCN1CCN(c2cccc3c2C(=O)N([C@H](CCCNS(=O)(=O)c2cccs2)c2ccc(OC)c(OC)c2)C3=O)CC1 [Cpd 194, (R)-thiophene-2-sulfonic acid [4-[4-(4-allyl-piperazin-1-yl)-1,3-dioxo-1,3-dihydro-isoindol-2-yl]-4-(3,4-dimethoxy-phenyl)-butyl]-amide] | 10 | 990 | 170
18 | COc1ccc([C@@H](CCCNS(=O)(=O)c2cccs2)N2C(=O)c3cccc(N4CCN(C5CCCCC5)CC4)c3C2=O)cc1OC [Cpd 196, (R)-thiophene-2-sulfonic acid [4-[4-(4-cyclohexyl-piperazin-1-yl)-1,3-dioxo-1,3-dihydro-isoindol-2-yl]-4-(3,4-dimethoxy-phenyl)-butyl]-amide] | 22 | 1200 | 380
